This is an account of results in ChEMBL document CHEMBL3860073, “Thermodynamic properties of leukotriene A4 hydrolase inhibitors” (Bioorg Med Chem, 2016).

Broadly, the ΔTm is the change in melting temperature against a reference sample. By IC50 is commonly meant the point on the concentration scale where inhibition reaches its midpoint. A low value points to higher potency. For orientation: Kd means a measure of binding affinity in units of concentration. Lower therefore signals a tighter complex. Usually Ki stands for the dissociation constant of the complex between target and ligand, obtained from inhibition or displacement. Read a low Ki as tighter binding.

In experiment [1] the target is T1, Leukotriene A-4 hydrolase (Homo sapiens) (UniProt P09960).
T1 sequence (whole entry): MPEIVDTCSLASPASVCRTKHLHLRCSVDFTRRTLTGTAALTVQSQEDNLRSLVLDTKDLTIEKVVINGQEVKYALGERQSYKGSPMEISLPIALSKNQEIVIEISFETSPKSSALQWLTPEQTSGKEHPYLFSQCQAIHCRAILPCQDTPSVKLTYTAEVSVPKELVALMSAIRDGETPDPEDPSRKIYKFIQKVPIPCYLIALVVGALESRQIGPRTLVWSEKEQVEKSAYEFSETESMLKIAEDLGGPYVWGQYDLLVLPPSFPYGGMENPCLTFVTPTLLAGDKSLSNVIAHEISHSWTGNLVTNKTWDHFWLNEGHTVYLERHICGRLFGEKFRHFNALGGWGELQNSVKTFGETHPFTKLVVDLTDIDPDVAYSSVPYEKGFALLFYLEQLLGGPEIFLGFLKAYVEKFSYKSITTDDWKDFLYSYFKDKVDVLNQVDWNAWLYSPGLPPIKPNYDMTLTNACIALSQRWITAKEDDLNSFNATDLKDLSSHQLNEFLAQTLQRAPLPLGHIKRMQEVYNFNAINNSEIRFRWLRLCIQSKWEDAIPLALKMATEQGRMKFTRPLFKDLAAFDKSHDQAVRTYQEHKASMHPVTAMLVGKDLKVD
The experiment is described as follows: Binding affinity to human C-terminal His6-tagged/N-terminal T7 gene leader sequence-tagged LTA4H assessed as change in melting temperature at 0.5 mM by circular dichroism spectroscopic analysis. A general note: Circular dichroism is widely used to follow secondary structure.

Experiment [2] deals with T1, Leukotriene A-4 hydrolase (Homo sapiens).
The target is the same in experiment [3]. This is another data set of the same source.
Description: Binding affinity to human C-terminal His6-tagged/N-terminal T7 gene leader sequence-tagged LTA4H assessed as change in melting temperature at 1 mM by circular dichroism spectroscopic analysis
Experiment [4] concerns the target T2, Leukotriene A-4 hydrolase (Homo sapiens, UniProt P09960).
T2 sequence (P09960 whole entry): T1 sequence (whole entry)
Kind of experiment: Inhibition of human C-terminal his6-tagged/N-terminal T7 gene leader sequence-tagged LTA4H using L-arginine-7-amino-4-Methylcoumarine as substrate preincubated for 30 mins followed by substrate addition measured for 30 mins by fluorescence assay.

Experiment [5] deals with T2, Leukotriene A-4 hydrolase. The experiment is described as follows: Binding affinity to human C-terminal his6-tagged/N-terminal T7 gene leader sequence-tagged LTA4H at 35 degC by ITC method. (In general: ITC needs no label: the signal is the heat of the interaction.)
The target of experiment [6] is T2, Leukotriene A-4 hydrolase. Kind of experiment: Binding affinity to human C-terminal his6-tagged/N-terminal T7 gene leader sequence-tagged LTA4H at 25 degC by ITC method.
In experiment [7] the target is T2, Leukotriene A-4 hydrolase. The experiment is described as follows: Binding affinity to human C-terminal his6-tagged/N-terminal T7 gene leader sequence-tagged LTA4H at 15 degC by ITC method.
Experiment [8] concerns the target T2, Leukotriene A-4 hydrolase. Kind of experiment: Competitive inhibition of human C-terminal his6-tagged/N-terminal T7 gene leader sequence-tagged LTA4H using varying levels of L-arginine-7-amino-4-Methylcoumarine as substrate preincubated for 30 mins followed by substrate addition measured for 30 mins by fluorescence assay.
Experiment [9] addresses T1, Leukotriene A-4 hydrolase (Homo sapiens). The conditions noted are these: 40 uM.

As to `CN(CCCOc1ccc(Cc2ccccc2)cc1)CCC(=O)O`, the ΔTm is 8.9 °C in [1] and 5.4 °C in experiment [2].
With `CC(C)C[C@H](NC(=O)[C@@H](O)[C@H](N)Cc1ccccc1)C(=O)O`, the values for the ΔTm in [3] and in [2] were 5.2 °C and 5.1 °C, respectively.
In experiment [4], `Nc1nc(-c2ccc(Cc3ccccc3)cc2)cs1` came in with an IC50 of 400 nM. In addition, the Kd came to 220 nM in experiment [5], 310 nM in experiment [6] and 130 nM in experiment [7]. The ΔTm in experiment [2] and in experiment [9] was 5.3 °C throughout. Also, in experiment [8], the affinity corresponds to a Ki of 360 nM.
Take `C[C@H](CS)C(=O)N1CCC[C@H]1C(=O)O` [CAPTOPRIL]: in [4], the IC50 worked out at 3600 nM. The Kd turned out to be 8470 nM in [5], 6250 nM in experiment [6] and 6370 nM in experiment [7]. For the same compound, the ΔTm in [3] amounted to 0.7 °C; in experiment [2], 1.5 °C. In experiment [8], this compound displayed a Ki of 3700 nM.
`CN(C)CCOc1ccc(Oc2ccccc2)cc1` showed an IC50 in experiment [4] of 60 nM. Moreover, the Kd in [5] came out at 270 nM; in experiment [6] it was 270 nM; in [7], 60 nM. The ΔTm in experiment [1] amounted to 7.8 °C; in experiment [2] it was 5 °C. Further, the Ki in experiment [8] stood at 160 nM.
